The nature of series [1]: In vivo hepatic targeting of GalNac-siRNA (siRNA concentration of hepatic tissue by qPCR). The settings on record: 100 mg/kg, tail vein injection once, livers 6 hours after administration; compared with negative control siRNA not linked to GalNAc. Also on record: species or system Balb/c-nu mice. How it is done: Balb/c-nu mice, male, body weight ranged 18-22 g, were randomly divided into 3 groups, 5 mice/group, which respectively were blank control group, negative control group and targeting group, the administration dose was 100 mg/kg. The negative control group was administered by tail vein injection of negative control test substance (NC, Ribobio, siM200922112438) once, the targeting group was administered by tail vein injection of the obtained G1-12 test substance of example 6 once, the blank control group was administered an equal volume of saline. All animals' livers were immediately placed in liquid nitrogen after 6 hours of administration, then were saved at −80° C., the siRNA pharmaceutical concentration of hepatic tissue was tested by qPCR method. • 1. Drawing the standard curve. […] The average Ct values of each standard points were calculated based on the obtained Ct values, the log value of standard point concentration was abscissa, the obtained average Ct value was ordinate, the standard curve was drawn, the regression equation and R^2 were calculated, R^2>0.99. • 2. […] The mice liver samples were ground to powder by liquid nitrogen grinding method, and the weight of powder was measured. […] The sample Ct values were substituted into the regression equation of the standard curve, the siRNA content of samples was calculated.
In general terms: Real-time PCR tracks product formation cycle by cycle.

The target of series [2] is T1, Hepatocyte ASGPR receptor (Homo sapiens, UniProt P07306).
T1 construct: endogenous in cells
T1 sequence (P07306 1-291): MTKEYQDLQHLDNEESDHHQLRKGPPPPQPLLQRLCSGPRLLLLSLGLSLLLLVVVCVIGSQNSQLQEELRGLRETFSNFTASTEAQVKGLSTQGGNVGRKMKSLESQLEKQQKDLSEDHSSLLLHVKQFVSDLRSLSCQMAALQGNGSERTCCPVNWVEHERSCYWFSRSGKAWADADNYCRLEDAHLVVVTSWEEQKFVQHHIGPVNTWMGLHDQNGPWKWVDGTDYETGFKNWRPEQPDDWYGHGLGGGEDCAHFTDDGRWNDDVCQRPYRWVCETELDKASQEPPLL
T1 sequence (P07307 1-311 partner): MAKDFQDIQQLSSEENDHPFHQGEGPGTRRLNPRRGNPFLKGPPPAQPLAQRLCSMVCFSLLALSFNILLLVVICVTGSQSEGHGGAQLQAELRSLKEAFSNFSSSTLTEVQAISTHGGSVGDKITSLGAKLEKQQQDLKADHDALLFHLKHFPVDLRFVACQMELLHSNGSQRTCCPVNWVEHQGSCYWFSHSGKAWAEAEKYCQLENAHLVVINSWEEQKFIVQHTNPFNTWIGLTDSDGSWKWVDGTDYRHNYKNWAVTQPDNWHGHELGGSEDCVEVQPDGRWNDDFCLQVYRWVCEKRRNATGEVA
As to the kind of experiment: Binding affinity test with hepatocyte ASGPR receptor (Cy5 flow cytometry, binding saturation curve). The method, then:
Embodiment 1: Binding Affinity Test with Hepatocyte ASGPR Receptor
The compound G1, G4, G5 obtained from the examples 1, 4, 5, bound to the above mentioned siRNA respectively to form conjugates which were shown in Table 1.
G1-12, G4-12, G5-12 (1 uM) were diluted respectively in a gradient according to the following Table 2.
The cell concentration was diluted by DMEM culture medium with 2% FBS to 4*10^5 cells/mL.
200 μL cells of each sample and 200 μL siRNA were mixed uniformly, 200 μL cells of the blank control group and 200 μL culture medium were mixed uniformly, and were added in 3 wells of 96-well plate with U-shaped bottom, 100 μL each well. Samples of each concentration of all siRNA were placed in the ice box after sampling, and were placed in decolorization shaker and incubated in dark for 2 hours.
50 g of 96-well plate with U-shaped bottom was centrifuged for 2 minutes at 4° C. 80 μL supernatant was aspirated and discarded by pipette, 10 μg/mL propidium iodide was prepared by using of PBS with 2% FBS, 100 μL PI reagent was added in each well and was stained for 15 minutes. After staining, 50 g of 96-well plate with U-shaped bottom was centrifuged for 2 minutes at 4° C. After washed by PBS with 2% FBS for twice, 100 μL PBS with 2% FBS was added for resuspension, flow cytometer was used to test and count the average Cy5 fluorescence intensity of live cell population.

As a reminder, the Kd is the constant that tells how readily two partners part at equilibrium. For “G1-12: G1 bound to 5' end of SEQ ID NO: 1, paired with 5'-Cy5 SEQ ID NO: 2; structure Z1 (sense GUAUGUUGCCCGUUUGUCC; antisense GGACAAACGGGCAACAUACCU; G1 ligand 5'; Cy5 label; modified_base join(1,5,8,12,16) OTHER; deoxyribonucleotide modification; modified_base 3 OTHER; thiophosphorylated skeleton modification and deoxyribonucleotide modification; modified_base join(4,6,7,9,10,11,13,14,15,17) OTHER; 2'-fluoro modification; modified_base join(2,18,19) OTHER; thiophosphorylated skeleton modification and 2'-fluoro modification; modified_base join(1,5,7,9,11,13,15,17) OTHER; 2'-O-methyl modification; modified_base join(3,19,20,21) OTHER; thiophosphorylated skeleton modification and 2'-O-methyl modification; modified_base join(2,4) OTHER; …) [Compound G1-12]”, the “distribution in mice liver (siRNA content of hepatic tissue)” value in series [1] was “obviously increased”. The substance further gave a Bmax in series [2] (average Cy5 fluorescence intensity of live cells minus blank, one site binding (hyperbola) fit, 0.9-100 nM, 2 hours on ice) of 153854. Moreover, the Kd in series [2] (one site binding (hyperbola) fit of Cy5 fluorescence, 0.9-100 nM, 2 hours on ice, read-out: Kd (dissociation equilibrium constant)) turned out to be 1.98 nM. In addition, the “binding affinity with ASGPR receptor” value in series [2] (statement in words from Table 3) is listed as “reach a higher level”.

These data come from patent US20260167621A1, “Three Cluster Galactose Type Compound, Conjugate, Making Method and Use Thereof” (GUANGZHOU RIBOBIO CO., LTD., priority 2023, published 2026).
